Experimental data reported in PubChem BioAssay AID330 (DTP/NCI, 2004).
Several values for one entry are separate records, joined by “and”; a condition that tells them apart may be missing. Equal entries are not always repeated. Toxic doses and inconclusive results are not listed. Rule for the calls: active = survival T/C of 150% or more; inactive = T/C below 125% in these data.

Tested on: P388 leukemia ip, CD2F1 mice, survival T/C
Assay: NCI In Vivo Anticancer Drug Screen. Data for tumor model P388 Leukemia (intraperitoneal) in CD2F1 (CDF1) mice
Conditions: endpoint: median survival time, higher = longer survival
In short: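 Mice carrying the transplanted tumor received test compound or vehicle. Survival was recorded in each group, and the value is the treated-group measurement divided by that of the vehicle-treated control group.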

[1] = dose: 50.0 mg/kg/injection, schedule: Q01DX005 (ip), vehicle: saline with Tween-80
[2] = dose: 100.0 mg/kg/injection, schedule: Q01DX005 (ip), vehicle: saline with Tween-80
[3] = dose: 200.0 mg/kg/injection, schedule: Q01DX005 (ip), vehicle: saline with Tween-80
[4] = dose: 12.5 mg/kg/injection, schedule: Q01DX009 (ip), vehicle: saline with Tween-80
[5] = dose: 25.0 mg/kg/injection, schedule: Q01DX009 (ip), vehicle: saline with Tween-80
[6] = dose: 50.0 mg/kg/injection, schedule: Q01DX009 (ip), vehicle: saline with Tween-80
[7] = dose: 100.0 mg/kg/injection, schedule: Q01DX009 (ip), vehicle: saline with Tween-80
[8] = dose: 50.0 mg/kg/injection, schedule: Q01DX009 (ip), vehicle: other
[9] = dose: 100.0 mg/kg/injection, schedule: Q01DX009 (ip), vehicle: other
[10] = dose: 200.0 mg/kg/injection, schedule: Q01DX009 (ip), vehicle: other
[11] = dose: 60.0 mg/kg/injection, schedule: Q01DX005 (ip), vehicle: saline with Tween-80
[12] = dose: 120.0 mg/kg/injection, schedule: Q01DX005 (ip), vehicle: saline with Tween-80
[13] = dose: 50.0 mg/kg/injection, schedule: Q01DX009 (ip), vehicle: saline
[14] = dose: 25.0 mg/kg/injection, schedule: Q01DX005 (ip), vehicle: saline with Tween-80
[15] = dose: 50.0 mg/kg/injection, schedule: Q01DX009 (ip), vehicle: Klucel (hydroxypropylcellulose) (HPC)
[16] = dose: 100.0 mg/kg/injection, schedule: Q01DX009 (ip), vehicle: Klucel (hydroxypropylcellulose) (HPC)
[17] = dose: 200.0 mg/kg/injection, schedule: Q01DX009 (ip), vehicle: Klucel (hydroxypropylcellulose) (HPC)
[18] = dose: 200.0 mg/kg/injection, schedule: Q01DX009 (ip), vehicle: saline with Tween-80
[19] = dose: 100.0 mg/kg/injection, schedule: Q01DX009 (ip), vehicle: saline
[20] = dose: 200.0 mg/kg/injection, schedule: Q01DX009 (ip), vehicle: saline

Measured: T/C

CCN(CC)CCCC(C)Nc1cc(O)c2c(c1O)C(=O)c1ccccc1C2=O (stereo unspecified)
inactive: [1] 102 % of control | [2] 98 % of control | [3] 111 % of control

CC1=C(CO)C(=O)OC(C(C)C2CCC3C4CC5OC56C(O)CCC(=O)C6(C)C4CCC23C)C1 (stereo unspecified)
inactive: dose: 11.15 mg/kg/injection, schedule: Q01DX009 (ip), vehicle: saline + alcohol 95 % of control | dose: 22.3 mg/kg/injection, schedule: Q01DX009 (ip), vehicle: saline + alcohol 99 % of control | dose: 44.6 mg/kg/injection, schedule: Q01DX009 (ip), vehicle: saline + alcohol 101 % of control

O=C(CC(C(=O)c1ccccc1)N1CC1)c1ccccc1 (stereo unspecified)
inactive: dose: 6.25 mg/kg/injection, schedule: Q01DX009 (ip), vehicle: saline with Tween-80 95 % of control | [4] 100 % of control | [5] 100 % of control and 87 % of control | [6] 116 % of control | [7] 91 % of control

COc1cccc2c1C(=O)c1c(O)c3c(c(O)c1C2=O)CC(O)(C(C)=O)CC3O (stereo unspecified)
inactive: dose: 6.25 mg/kg/injection, schedule: Q01DX009 (ip), vehicle: other 100 % of control | dose: 12.5 mg/kg/injection, schedule: Q01DX009 (ip), vehicle: other 92 % of control | dose: 25.0 mg/kg/injection, schedule: Q01DX009 (ip), vehicle: other 91 % of control | [8] 91 % of control | [9] 119 % of control | [10] 92 % of control | dose: 400.0 mg/kg/injection, schedule: Q01DX009 (ip), vehicle: other 98 % of control

COc1ccc(C(C)(C)c2cc3c(cc2OC)OCO3)cc1
inactive: [11] 104 % of control | [12] 116 % of control

CC1COS(=O)(=O)C1 (stereo unspecified)
inactive: dose: 25.0 mg/kg/injection, schedule: Q01DX009 (ip), vehicle: saline 102 % of control | [13] 101 % of control

NC12CC3CC(CC(C3)C1)C2
inactive: [14] 97 % of control | [1] 92 % of control | [2] 88 % of control

COc1ccccc1N1CCN(CCCNc2cc(=O)n(C)c(=O)n2C)CC1
inactive: [15] 98 % of control | [16] 104 % of control | [17] 108 % of control

O=[N+]([O-])c1ccc(Sc2ccccn2)nc1Sc1ccccn1
inactive: dose: 0.79 mg/kg/injection, schedule: Q01DX009 (ip), vehicle: saline with Tween-80 100 % of control | dose: 1.56 mg/kg/injection, schedule: Q01DX009 (ip), vehicle: saline with Tween-80 104 % of control | dose: 3.12 mg/kg/injection, schedule: Q01DX009 (ip), vehicle: saline with Tween-80 100 % of control | [18] 92 % of control

CCOC(=O)N1C(=O)C=CC1=O
inactive: dose: 18.75 mg/kg/injection, schedule: Q01DX009 (ip), vehicle: saline with Tween-80 106 % of control | dose: 37.5 mg/kg/injection, schedule: Q01DX009 (ip), vehicle: saline with Tween-80 104 % of control | dose: 75.0 mg/kg/injection, schedule: Q01DX009 (ip), vehicle: saline with Tween-80 105 % of control and 91 % of control | dose: 150.0 mg/kg/injection, schedule: Q01DX009 (ip), vehicle: saline with Tween-80 113 % of control

O=C1CSC(=S)N1c1ccc(F)cc1F
inactive: dose: 50.0 mg/kg/injection, schedule: Q01DX009 (ip), vehicle: suspension in saline 97 % of control | dose: 100.0 mg/kg/injection, schedule: Q01DX009 (ip), vehicle: suspension in saline 100 % of control | dose: 200.0 mg/kg/injection, schedule: Q01DX009 (ip), vehicle: suspension in saline 100 % of control

CCOC(=O)CC1Cc2ccc3ccc(OC)cc3c2C1=O (stereo unspecified)
inactive: dose: 12.5 mg/kg/injection, schedule: Q01DX009 (ip), vehicle: distilled water + Tween-80 102 % of control | dose: 25.0 mg/kg/injection, schedule: Q01DX009 (ip), vehicle: distilled water + Tween-80 100 % of control | dose: 50.0 mg/kg/injection, schedule: Q01DX009 (ip), vehicle: distilled water + Tween-80 95 % of control | dose: 100.0 mg/kg/injection, schedule: Q01DX009 (ip), vehicle: distilled water + Tween-80 97 % of control | dose: 200.0 mg/kg/injection, schedule: Q01DX009 (ip), vehicle: distilled water + Tween-80 93 % of control

COc1ccccc1CC(C)N (stereo unspecified)
inactive: dose: 20.0 mg/kg/injection, schedule: Q04DX003 (ip), vehicle: saline 110 % of control | dose: 40.0 mg/kg/injection, schedule: Q04DX003 (ip), vehicle: saline 105 % of control | dose: 80.0 mg/kg/injection, schedule: Q04DX003 (ip), vehicle: saline 105 % of control

CC(C)(C)c1ccc(C(=O)n2c(=S)oc3ccc(Cl)cc32)cc1
inactive: [11] 96 % of control | [12] 95 % of control | dose: 240.0 mg/kg/injection, schedule: Q01DX005 (ip), vehicle: saline with Tween-80 94 % of control

O=C(O)CCCCCCCCCOC(C[N+](=O)[O-])C(Cl)(Cl)Cl (stereo unspecified)
inactive: [8] 102 % of control | [9] 103 % of control | [10] 113 % of control

NC(N)=O.NC(N)=O.NC(N)=O.NC(N)=O.NC(N)=O.NC(N)=O.[O-][Cl+3]([O-])([O-])O.[Ti+3]
inactive: [13] 99 % of control | [19] 92 % of control | [20] 86 % of control

OC(c1ccccc1)(c1ccccc1)c1ccc(C[P+](c2ccccc2)(c2ccccc2)c2ccccc2)cc1
inactive: dose: 1.56 mg/kg/injection, schedule: Q01DX009 (ip), vehicle: other 101 % of control | dose: 3.13 mg/kg/injection, schedule: Q01DX009 (ip), vehicle: other 117 % of control

Cc1cc(CO)cc(CO)c1
inactive: dose: 100.0 mg/kg/injection, schedule: Q01DX001 (ip), vehicle: saline with Tween-80 104 % of control | dose: 200.0 mg/kg/injection, schedule: Q01DX001 (ip), vehicle: saline with Tween-80 101 % of control | dose: 400.0 mg/kg/injection, schedule: Q01DX001 (ip), vehicle: saline with Tween-80 100 % of control

CN(C)c1ccc2ccc(N(C)C)nc2c1
inactive: [4] 93 % of control | [5] 117 % of control | [6] 89 % of control and 95 % of control

CC1CCCC(C)N1Cc1ccccc1 (stereo unspecified)
inactive: [14] 93 % of control | [1] 93 % of control

CC(C)SC(=S)Nc1cc(C(F)(F)F)ccc1Cl
inactive: [13] 100 % of control | [19] 101 % of control | [20] 99 % of control

O=[N+]([O-])c1ccc(SC2=NCCCN2)c(Cl)c1
inactive: [6] 102 % of control | [7] 100 % of control | [18] 105 % of control

CC(=O)OC1C=CC(SC23CC4CC(CC(C4)C2)C3)N(C(C)=O)C1SC12CC3CC(CC(C3)C1)C2 (stereo unspecified)
inactive: [15] 103 % of control | [16] 105 % of control | [17] 99 % of control

Nc1ncnc2[nH]c(=S)[nH]c12
inactive: dose: 1.56 mg/kg/injection, schedule: Q01DX005 (ip), vehicle: Klucel (hydroxypropylcellulose) (HPC) 110 % of control | dose: 3.12 mg/kg/injection, schedule: Q01DX005 (ip), vehicle: Klucel (hydroxypropylcellulose) (HPC) 94 % of control | dose: 6.25 mg/kg/injection, schedule: Q01DX005 (ip), vehicle: Klucel (hydroxypropylcellulose) (HPC) 99 % of control and 97 % of control

CN(c1ccccc1)c1nnnn1-c1ccccc1
inactive: dose: 50.0 mg/kg/injection, schedule: Q04DX003 (ip), vehicle: saline with Tween-80 95 % of control | dose: 100.0 mg/kg/injection, schedule: Q04DX003 (ip), vehicle: saline with Tween-80 104 % of control | dose: 200.0 mg/kg/injection, schedule: Q04DX003 (ip), vehicle: saline with Tween-80 111 % of control

C/C(=N\NC(=S)Nc1ccc([N+](=O)[O-])cc1S(=O)(=O)O)c1ccccn1
inactive: [1] 103 % of control | [2] 106 % of control | [3] 103 % of control

ClCCN(CCCl)c1ccc(N=Nc2cccc(Cl)c2Cl)cc1
inactive: dose: 150.0 mg/kg/injection, schedule: Q04DX003 (ip), vehicle: Klucel (hydroxypropylcellulose) (HPC) 99 % of control | dose: 300.0 mg/kg/injection, schedule: Q04DX003 (ip), vehicle: Klucel (hydroxypropylcellulose) (HPC) 95 % of control
